Assay results from patent publication US12157745B2, “Heterocyclic systems and pharmaceutical compositions thereof” (University of Sharjah, priority 2018, dated 2024).

Assays:
[1] = tested on: Bid, Bax, caspase-3 & -9, Bcl-xL; assay: Western blot and annexin V, pro- and anti-apoptotic proteins; type: cell-based; conditions: western blot, confirmed by annexin V study
Method: Over-expression of this oncogene could result in tumor cell proliferation and migration and therefore its inhibition may halt tumor growth. Other pro-apoptotic (Bid, Bax, caspase-3 & -9) and anti-apoptotic (Bcl-xL) proteins were also modulated by compound it as evident from western blot analysis and as confirmed by annexin V study (FIG. 7).
(§1) The MCF-7, SKBR3 and HCT116 total cell lysate were prepared after 24 hours of treatment with compound it at IC50 and DIC50 doses by using 1× laemmli buffer. Total protein concentration was then estimated for each sample and 15-30 μg of protein lysate were loaded equally on 12% SDS-PAGE gel in order to detect various proteins expression levels. In short, the membrane was incubated with different primary antibodies (as mentioned in above section) (1:1000) overnight after blocking with 5% non-fat milk solution for 1 hour. The membrane was then re-probed with respective mouse/rabbit secondary antibodies (1:2000) for 1 h, and later developed by enhanced chemiluminescence (ECL) method by using a Chemidoc MP (BioRad, Germany).
The apoptotic level was measured using a kit method as per supplier's protocol. […] 2×10^6 cells were counted and re-suspended in 1 mL of binding buffer (1×). […] 400 μL of IX binding buffer was finally added to the cells and analyzed immediately by using by a flow cytometer (BD, Accuri C6).

p53 = assay: Western blot, p53 expression; type: cell-based; conditions: breast cancer cells
Method: as §1

cytosol aminopeptidase = molecular target: T1, cytosol aminopeptidase (Homo sapiens, UniProt P28838); assay: DARTS proteomic assay; type: binding
T1 construct: HEK293T cells were lysed using M-PER; endogenous in cells; host or cells: HEK293T lysate
Source text: (§2) The unique properties of compound it prompted an in-depth analysis to explore its potential novel targets. […] Mammalian thioredoxin reductases (TrxRs) are selenocysteine-containing homodimericflavin enzymes that catalyze the NADPH-dependent reduction of oxidized thioredoxins. […] Therefore, inhibiting this enzyme should form the foundation of a novel anticancer lead drug candidate. Many drug companies around the world are trying to design drugs that target this enzyme, however, until now there is no clinical anti-cancer drug that specifically targets TrxR although some drugs have been reported to inhibit TrxR to varying extents. […] One of the hurdles in developing a successful TrxR inhibitor is its cross reactions with thiols present inside the cells. […] Moreover, according to many reports, inhibiting excessive TrxR levels will also […] of Parkinson's disease as well as Alzheimer's disease. On the other hand, increased aminopeptidases are typically observed in many cancer tissues and play a key role in tumor cell proliferation, angiogenesis, and tumor invasiveness by regulating extracellular matrix degradation and cell signaling and recognition. […] A DARTS assay was used to assess the binding of compound 1t. HEK293T cells were lysed using M-PER (Thermo Scientific, Inc.) supplemented with protease and phosphatase inhibitors (Lysis buffer). 4.7 mg/mL of protein and TNC buffer (10 mM Tris, 140 mMNaCl, 5 mM CaCl2)) was added, compound it was diluted in DMSO to 3 different concentrations (0.01 μM, 0.1 μM, 1 μM) and incubated for one hour at room temperature. Trypsin (Promega) was added and incubated for 3 hours at 37° C. Thereafter, M-PER lysis buffer was added and the samples were concentrated with Microcon 10K centrifugal filters. The proteins were identified by gel electrophoresis liquid chromatography mass spectroscopy ([…]).

thioredoxin reductase = molecular target: T2, thioredoxin reductase (Homo sapiens, UniProt Q16881); assay: DARTS proteomic assay; type: binding; conditions: FIG. 9
T2 construct: HEK293T cells were lysed using M-PER; endogenous in cells; host or cells: HEK293T lysate
Source text: as §2

[2] = molecular target: T3, dihydrolipoamide dehydrogenase (Homo sapiens, UniProt P09622); assay: DARTS proteomic assay; type: binding; conditions: FIG. 15
T3 construct: HEK293T cells were lysed using M-PER; endogenous in cells; host or cells: HEK293T lysate
Source text: The unique properties of compound it prompted an in-depth analysis to explore its potential novel targets.
Dihydrolipoamide dehydrogenase (DLD) is a mitochondrial enzyme involved in metabolic process that is encoded by the DLD gene. Not many studies have been done to identify the direct involvement of this enzyme in cancers. However, a deregulated level of DLD may modulate mitochondrial-mediated diseases and may impair normal metabolic processes. […] The presently disclosed data is encouraging and indicates compound it may potentially be used to target multiple key enzymes that are involved in tumor development and progression.
A DARTS assay was used to assess the binding of compound 1t. HEK293T cells were lysed using M-PER (Thermo Scientific, Inc.) supplemented with protease and phosphatase inhibitors (Lysis buffer). 4.7 mg/mL of protein and TNC buffer (10 mM Tris, 140 mMNaCl, 5 mM CaCl2)) was added, compound it was diluted in DMSO to 3 different concentrations (0.01 μM, 0.1 μM, 1 μM) and incubated for one hour at room temperature. Trypsin (Promega) was added and incubated for 3 hours at 37° C. Thereafter, M-PER lysis buffer was added and the samples were concentrated with Microcon 10K centrifugal filters. The proteins were identified by gel electrophoresis liquid chromatography mass spectroscopy (GelLCMS).

T2 sequence (Q16881 151-649 limits assumed): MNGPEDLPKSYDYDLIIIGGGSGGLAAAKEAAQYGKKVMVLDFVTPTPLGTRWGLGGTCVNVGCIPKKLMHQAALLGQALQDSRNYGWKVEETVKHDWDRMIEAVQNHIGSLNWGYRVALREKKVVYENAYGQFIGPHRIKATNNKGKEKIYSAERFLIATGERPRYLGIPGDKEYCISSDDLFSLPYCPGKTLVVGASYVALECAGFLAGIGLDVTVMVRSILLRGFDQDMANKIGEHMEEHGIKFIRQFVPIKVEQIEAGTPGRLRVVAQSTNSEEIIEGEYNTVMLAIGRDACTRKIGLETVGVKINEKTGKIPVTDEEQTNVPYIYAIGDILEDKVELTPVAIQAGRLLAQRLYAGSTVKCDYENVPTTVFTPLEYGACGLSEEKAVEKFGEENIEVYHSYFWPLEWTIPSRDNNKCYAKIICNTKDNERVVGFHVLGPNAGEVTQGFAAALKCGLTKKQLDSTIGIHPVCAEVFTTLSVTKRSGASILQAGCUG
T3 sequence (P09622 36-509): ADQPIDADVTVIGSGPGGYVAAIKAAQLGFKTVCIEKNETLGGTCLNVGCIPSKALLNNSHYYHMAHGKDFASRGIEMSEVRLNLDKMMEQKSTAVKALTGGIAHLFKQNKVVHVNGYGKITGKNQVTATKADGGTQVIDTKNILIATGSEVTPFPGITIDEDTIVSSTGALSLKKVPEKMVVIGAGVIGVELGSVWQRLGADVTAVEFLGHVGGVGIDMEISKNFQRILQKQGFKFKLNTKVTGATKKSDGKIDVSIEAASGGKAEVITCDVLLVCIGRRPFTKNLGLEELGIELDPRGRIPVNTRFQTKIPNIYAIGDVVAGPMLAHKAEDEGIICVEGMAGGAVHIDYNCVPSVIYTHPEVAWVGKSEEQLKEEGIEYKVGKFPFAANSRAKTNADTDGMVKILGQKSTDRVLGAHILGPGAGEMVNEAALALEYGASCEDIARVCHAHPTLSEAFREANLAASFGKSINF
T1 sequence (P28838 whole entry): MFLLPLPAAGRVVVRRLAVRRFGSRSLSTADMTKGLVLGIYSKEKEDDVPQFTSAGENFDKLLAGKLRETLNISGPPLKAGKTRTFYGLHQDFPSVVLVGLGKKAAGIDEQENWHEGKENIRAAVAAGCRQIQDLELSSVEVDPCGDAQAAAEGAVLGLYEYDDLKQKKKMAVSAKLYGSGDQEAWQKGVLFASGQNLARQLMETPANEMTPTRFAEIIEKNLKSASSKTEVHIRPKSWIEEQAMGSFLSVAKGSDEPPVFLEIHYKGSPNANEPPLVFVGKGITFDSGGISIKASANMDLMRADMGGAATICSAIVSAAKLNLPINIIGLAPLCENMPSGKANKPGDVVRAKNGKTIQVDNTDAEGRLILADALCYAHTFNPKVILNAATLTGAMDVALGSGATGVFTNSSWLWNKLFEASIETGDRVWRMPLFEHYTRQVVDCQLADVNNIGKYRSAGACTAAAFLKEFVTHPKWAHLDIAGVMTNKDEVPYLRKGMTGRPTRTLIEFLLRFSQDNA

Structure (SMILES): CC1(C)[C@H]2COc3ccc4ccccc4c3[C@H]2N=C2SC(c3ccccc3)=C(c3ccccc3)N21 [Compound 1t]
- Pro-apoptotic (Bid, Bax, caspase-3 & -9) and anti-apoptotic (Bcl-xL) proteins [1]: modulated
- Expression of p53 (p53): up-regulation
- Targeting of cytosolic aminopeptidase (cytosol aminopeptidase): dose-dependent manner
- Concentration of highest effect on TrxR (thioredoxin reductase): 1 µM
- Modulation of TrxR (thioredoxin reductase; HEK293T lysate, 0.01, 0.1, 1 μM): concentration-dependent modulation
- Regulation of dihydrolipoamide dehydrogenase [2]: regulates this enzyme
